Consider ten molecules from paper PMC12683216, “Using High‐Throughput Screening to Identify Crosslinking Peptides That Control Cell‐Mediated Matrix Degradation” (Advanced Healthcare Materials, 2025).

Where a SMILES comes first, the peptide text is derived from it. [ ]: non-standard residue; d: D form. βAla = NCCC(=O)O

What all share (format): in vitro ADME, human
Common to all, as to conditions: human, 24 h, LC-MS

Series [1] can be described thus: Soluble peptide degradation, Media condition (cell-conditioned media, LC-MS). The procedure: (§1) Most in vitro protease activity assays incubate the peptides or proteins of interest with a single protease in a buffered solution. However, the kinetics of protease activity in tissues are complex and highly regulated, and both the activity^[ [37] ^] and substrate specificity^[ [38] ^] of proteases can be modulated through association with other proteins.^[ [39] ^] Most MMP‐substrate peptides are also cleaved by multiple proteases,^[ [5] ^] and within the context of biomaterials, the most important factor is typically how the combined activity of all proteases, rather than the activity of any specific protease, modifies the local microenvironment versus the activity due to any individual enzyme. We synthesized peptides identified in the TAILS proteomic screen that were present on proteins that are known to be secreted or found on the cell membrane, pooled them, and added them either to cell culture media on top of cells, the “Cells” condition, or conditioned media lacking cells, the “Media” condition (Figure 2A). The fraction of peptides remaining after 24 h in each condition was then quantified using LC‐MS. Soluble proteases should be present in both conditions, however, membrane‐type proteases should primarily be found in the samples containing cells and not the conditioned media samples. A key benefit of this approach is that it surveys the total functional proteolytic activity, including the effects of inhibitors and co‐factors, and quantifies the degradation rate of soluble peptides by the complete secretome of different cell types.
(§2) hUVECs (75000 per well) or hMSCs (36000 per well) were seeded into a 48 well plate, and 500 µL media was added to the wells. […] The peptide libraries were dissolved at a stock solution of 10 mM total peptide content. For libraries containing 38 peptides, 95 µL of the stock solution was added to each well; for libraries with 19 peptides, 47.5 µL was added to each well, and media was taken at 0 and 24 h. Add 4 µL of acetic acid to all collected media in the LC‐MS plates and store them in a −80 °C freezer to prevent further proteolytic degradation. From each sample, 10 µL of crude solution was introduced by the LC‐MS through a Thermo Scientific Vanquish LC System (Thermo Fisher Scientific), which outputted to a Thermo Scientific LTQ XL Linear Ion Trap Mass Spectrometer (Thermo Fisher Scientific). The sampled mixture was trapped on a column (ProntoSIL C18 AQ, 120 Å, 3 µm, 2.0 x 50 mm HPLC Column, PN 0502F184PS030, MAC‐MOD Analytical Inc.). The samples were loaded onto the column with a solvent containing acetonitrile/water, 5:95 (v/v) containing 1% acetic acid at a flow rate of 300 µL min^−1 and held for 1 min. The sample was then eluted from the column with a linear gradient of 5–40% Solvent B (1% acetic acid in acetonitrile) at the same flow rate for 5 min. This was followed by a 1 min ramp up to 100% Solvent B, where it was re‐equilibrated with Solvent A (1% acetic acid) to 5% solvent B over the course of 1 min and held there for 2 min. The column temperature was kept at a constant 29 °C, and the mass spectrometer was operated in positive ion mode. Using a Heated ESI, the Source Voltage was set to 4.1 kV, and the capillary temperature was 350 °C. For non‐library degradation studies, 2.5 µL of 10 mM peptide stock solution for each peptide was added.
(§3) To assess the activity of the conditioned media, the media were divided into two equal portions. One portion was used for a standard degradation study, while the other was cultured for an additional 24 h before the PanMMP and KLVADLMASAE were added. After 24 h of incubation, the media were collected for further analysis. To assess the impact of recombinant MMP‐14 on PanMMP and KLVADLMASAE, recombinant MMP‐14 (antibodies.com) was dissolved in the media at a concentration of 0.5 nM. The remaining steps followed the standard degradation study protocol. […]

Series [2] is described as follows: Soluble peptide degradation, Cells condition (LC-MS). The procedure:
as §1, §2
In the MMP‐14 inhibitor study, the MMP‐14 inhibitor NSC 405 020 (Cayman Chemical Company) was dissolved in DMSO to make a 10 mM stock solution and stored in −20 °C freezer. 0.5 µL MMP‐14 inhibitor stock solution was added to each well to achieve a 10 µM final concentration.
For all degradation studies using soluble peptides, a non‐proteolytically degradable NH2‐βFβAβAβAβAβAβA‐amide (βFβA6) peptide, where βF is β‐phenylalanine and βA is β‐alanine, was added at a 50 µM concentration and used as an internal standard. Peptide degradation ratios were measured by LC‐MS and analyzed by Xcalibur. […]

A short description of series [3]: Soluble peptide degradation, Media condition (cell-conditioned media, LC-MS). The procedure:
as §1, §2, §3
The source holds these as a separate data set.

[4] abbreviates: Figure 2B heatmap, pooled TAILS-derived soluble peptides in 24 h hMSC-conditioned media without cells, ratio to βFβA6 internal standard, 24 h / 0 h, N = 5, read-out: Fraction of peptide remaining at 24 hours: hMSC Media.
The mark [5] stands for this setting: hMSCs in culture with fresh media (Cells condition), Figure 2B heatmap, pooled TAILS-derived soluble peptides (Ac-βAla N-terminus, βAla-amide C-terminus) in media on hMSCs (36000 per well, 48 well plate, 500 µL), ratio to βFβA6 internal standard, 24 h / 0 h, N = 5, read-out: Fraction of peptide remaining at 24 hours: hMSC Cells.
[6] abbreviates: Figure 2B heatmap, pooled TAILS-derived soluble peptides in 24 h hUVEC-conditioned media without cells, ratio to βFβA6 internal standard, 24 h / 0 h, N = 5, read-out: Fraction of peptide remaining at 24 hours: hUVEC Media.
Where [7] appears, read: hMSC-conditioned media without cells (Media condition), Figure 3B heatmap, split-and-pool libraries KLVADX1X2ASAE in hMSC-conditioned media without cells, ratio to βFβA6, N = 2, read-out: Fraction of peptide remaining after 24 hours: hMSC Media.
Setting [8] is: hMSCs in culture with fresh media (Cells condition), Figure 3B heatmap, split-and-pool libraries KLVADX1X2ASAE (19 or 38 peptides per library) in media on hMSCs, ratio to βFβA6, N = 2, read-out: Fraction of peptide remaining after 24 hours: hMSC Cells.
[9] abbreviates: hUVECs in culture with fresh media (Cells condition), Figure 3B heatmap, split-and-pool libraries KLVADX1X2ASAE in media on hUVECs, ratio to βFβA6, N = 2, read-out: Fraction of peptide remaining after 24 hours: hUVEC Cells.
Where [10] appears, read: hUVEC-conditioned media without cells (Media condition), Figure 3B heatmap, split-and-pool libraries KLVADX1X2ASAE in hUVEC-conditioned media without cells, ratio to βFβA6, N = 2, read-out: Fraction of peptide remaining after 24 hours: hUVEC Media.
Where [11] appears, read: hUVECs in culture with fresh media (Cells condition), Figure 2B heatmap, pooled TAILS-derived soluble peptides in media on hUVECs (75000 per well, 48 well plate, 500 µL), ratio to βFβA6 internal standard, 24 h / 0 h, N = 5, read-out: Fraction of peptide remaining at 24 hours: hUVEC Cells.

Regarding `CC(=O)NCCC(=O)N[C@@H](C)C(=O)N[C@@H](CO)C(=O)N[C@@H](C)C(=O)N1CCC[C@H]1C(=O)N[C@@H](C)C(=O)N[C@@H](CCCNC(=N)N)C(=O)N1CCC[C@H]1C(=O)N[C@@H](C)C(=O)N[C@@H](CC(C)C)C(=O)N[C@@H](CO)C(=O)NCCC(N)=O` [ASAPARPALS] (Ac-[βAla]ASAPARPALS[βAla]-NH2), the results for the amount remaining at 24 h in series [1] (setting [4]), in series [2] (setting [5]) and in series [3] (setting [6]) were 96%, 88% and 94%, respectively.

As to `CSCC[C@H](NC(=O)[C@H](CC(=O)O)NC(=O)[C@H](C)NC(=O)[C@@H](NC(=O)[C@H](CC(C)C)NC(=O)[C@H](CCCCN)NC(=O)CCNC(C)=O)C(C)C)C(=O)N[C@@H](Cc1c[nH]cn1)C(=O)N[C@@H](C)C(=O)N[C@@H](CO)C(=O)N[C@@H](C)C(=O)N[C@@H](CCC(=O)O)C(=O)NCCC(N)=O` [Met-His] (Ac-[βAla]KLVADMHASAE[βAla]-NH2), the fraction remaining at 24 h in series [1] (setting [7]) was 74%; in series [2] (setting [8]) it was 46%; in series [2] (setting [9]), 90%; in series [3] (setting [10]), 100%.

Turning to `CC[C@H](C)[C@H](NC(=O)[C@H](Cc1c[nH]cn1)NC(=O)[C@H](CCC(=O)O)NC(=O)[C@@H]1CCCN1C(=O)[C@H](Cc1ccccc1)NC(=O)[C@H](CC(N)=O)NC(=O)CCNC(C)=O)C(=O)N[C@@H](Cc1ccccc1)C(=O)N1CCC[C@H]1C(=O)N[C@@H](C)C(=O)N[C@@H](CC(C)C)C(=O)N[C@@H](C)C(=O)NCCC(N)=O` [NFPEHIFPALA] (Ac-[βAla]NFPEHIFPALA[βAla]-NH2), the share remaining at 24 h stood at 92% in series [1] (setting [4]), 73% in series [2] (setting [5]) and 99% in series [3] (setting [6]).

For the molecule `CC(=O)NCCC(=O)N[C@@H](CCCCN)C(=O)N[C@@H](CC(C)C)C(=O)N[C@H](C(=O)N[C@@H](C)C(=O)N[C@@H](CC(=O)O)C(=O)N1CCC[C@H]1C(=O)N[C@@H](Cc1ccccc1)C(=O)N[C@@H](C)C(=O)N[C@@H](CO)C(=O)N[C@@H](C)C(=O)N[C@@H](CCC(=O)O)C(=O)NCCC(N)=O)C(C)C` [Pro-Phe] (Ac-[βAla]KLVADPFASAE[βAla]-NH2), the share remaining at 24 h came to 73% in series [1] (setting [7]), 41% in series [2] (setting [8]), 84% in series [2] (setting [9]) and 97% in series [3] (setting [10]).

In the case of `CC(=O)NCCC(=O)N[C@@H](CCCCN)C(=O)N[C@@H](CC(C)C)C(=O)N[C@H](C(=O)N[C@@H](C)C(=O)N[C@@H](CC(=O)O)C(=O)N[C@@H](CC(=O)O)C(=O)N[C@@H](CCC(N)=O)C(=O)N[C@@H](C)C(=O)N[C@@H](CO)C(=O)N[C@@H](C)C(=O)N[C@@H](CCC(=O)O)C(=O)NCCC(N)=O)C(C)C` [Asp-Gln] (Ac-[βAla]KLVADDQASAE[βAla]-NH2), the share remaining at 24 h was found to be 75% in series [1] (setting [7]), 39% in series [2] (setting [8]), 84% in series [2] (setting [9]) and 102% in series [3] (setting [10]).

For the molecule `CC(=O)NCCC(=O)N[C@@H](CCCCN)C(=O)N[C@@H](C)C(=O)N1CCC[C@H]1C(=O)NCC(=O)NCC(=O)N[C@@H](CCCCN)C(=O)N[C@@H](C)C(=O)N[C@@H](C)C(=O)NCC(=O)N1CCC[C@H]1C(=O)N[C@@H](C)C(=O)NCCC(N)=O` [KAPGGKAAGPA] (Ac-[βAla]KAPGGKAAGPA[βAla]-NH2), the share remaining at 24 h in series [1] (setting [4]) came out at 95%; in series [2] (setting [5]), 78%; in series [2] (setting [11]), 71%; in series [3] (setting [6]), 88%.

For `CC[C@H](C)[C@H](NC(=O)[C@H](Cc1ccc(O)cc1)NC(=O)[C@H](CC(=O)O)NC(=O)[C@H](C)NC(=O)[C@@H](NC(=O)[C@H](CC(C)C)NC(=O)[C@H](CCCCN)NC(=O)CCNC(C)=O)C(C)C)C(=O)N[C@@H](C)C(=O)N[C@@H](CO)C(=O)N[C@@H](C)C(=O)N[C@@H](CCC(=O)O)C(=O)NCCC(N)=O` [Tyr-Ile] (Ac-[βAla]KLVADYIASAE[βAla]-NH2), the amount remaining at 24 h in series [1] (setting [7]) was found to be 76%; in series [2] (setting [8]) it was 43%; in series [2] (setting [9]), 86%; in series [3] (setting [10]), 92%.

On to `CC[C@H](C)[C@H](NC(=O)[C@H](CCCCN)NC(=O)[C@@H](NC(=O)[C@H](CO)NC(=O)[C@H](CO)NC(=O)[C@@H]1CCCN1C(=O)CCNC(C)=O)[C@@H](C)CC)C(=O)N[C@@H](CCCCN)C(=O)N[C@@H](CO)C(=O)N[C@@H](C)C(=O)N[C@@H](CC(=O)O)C(=O)N[C@@H](CCCCN)C(=O)NCCC(N)=O` [PSSIKIKSADK] (Ac-[βAla]PSSIKIKSADK[βAla]-NH2), for which the amount remaining at 24 h in series [1] (setting [4]) is 90%; in series [2] (setting [5]), 81%; in series [2] (setting [11]), 86%; in series [3] (setting [6]), 93%.

For the molecule `CSCC[C@H](NC(=O)[C@H](CCC(=O)O)NC(=O)CNC(=O)[C@H](Cc1ccccc1)NC(=O)[C@H](CO)NC(=O)[C@H](Cc1ccc(O)cc1)NC(=O)[C@@H](NC(=O)[C@H](CCC(=O)O)NC(=O)CCNC(C)=O)C(C)C)C(=O)N1CCC[C@H]1C(=O)N[C@@H](Cc1c[nH]c2ccccc12)C(=O)NCCC(N)=O` [EVYSFGEMPW] (Ac-[βAla]EVYSFGEMPW[βAla]-NH2), the amount remaining at 24 h came out at 78% in series [1] (setting [4]), 22% in series [2] (setting [5]) and 70% in series [2] (setting [11]).

In the case of `CC[C@H](C)[C@H](NC(=O)[C@H](CCC(=O)O)NC(=O)[C@H](C)NC(=O)[C@H](CC(C)C)NC(=O)[C@H](C)NC(=O)[C@H](CC(=O)O)NC(=O)CCNC(C)=O)C(=O)N[C@@H](CC(C)C)C(=O)N[C@@H](CCC(N)=O)C(=O)N[C@@H](C)C(=O)N[C@@H](CC(N)=O)C(=O)N[C@@H](CC(=O)O)C(=O)NCCC(N)=O` [DALAEILQAND] (Ac-[βAla]DALAEILQAND[βAla]-NH2), the amount remaining at 24 h in series [1] (setting [4]) turned out to be 90%; in series [2] (setting [5]), 81%; in series [2] (setting [11]), 84%.
